Measured values reported in patent US9458463B2, “Method for treatment of diabetes by a small molecule inhibitor for GRK5” (MAX-PLANCK-GESELLSCHAFT ZUR FÖRDERUNG DER WISSENSCHAFTEN …, priority 2010, dated 2016).

What was measured:
[1] = target: T1, full length GRK5 (Homo sapiens, UniProt P34947); assay: GRK5 kinase activity assay, ADP Glo Kinase Assay technology (Promega); assay type: biochemical; conditions: group II; ADP Glo Kinase Assay (Table 9-B)
T1 construct: 6/2 fold concentrated full length GRK5 (Millipore, #14-714) in reaction buffer; purchased Millipore 14-714
T1 sequence (P34947 whole entry): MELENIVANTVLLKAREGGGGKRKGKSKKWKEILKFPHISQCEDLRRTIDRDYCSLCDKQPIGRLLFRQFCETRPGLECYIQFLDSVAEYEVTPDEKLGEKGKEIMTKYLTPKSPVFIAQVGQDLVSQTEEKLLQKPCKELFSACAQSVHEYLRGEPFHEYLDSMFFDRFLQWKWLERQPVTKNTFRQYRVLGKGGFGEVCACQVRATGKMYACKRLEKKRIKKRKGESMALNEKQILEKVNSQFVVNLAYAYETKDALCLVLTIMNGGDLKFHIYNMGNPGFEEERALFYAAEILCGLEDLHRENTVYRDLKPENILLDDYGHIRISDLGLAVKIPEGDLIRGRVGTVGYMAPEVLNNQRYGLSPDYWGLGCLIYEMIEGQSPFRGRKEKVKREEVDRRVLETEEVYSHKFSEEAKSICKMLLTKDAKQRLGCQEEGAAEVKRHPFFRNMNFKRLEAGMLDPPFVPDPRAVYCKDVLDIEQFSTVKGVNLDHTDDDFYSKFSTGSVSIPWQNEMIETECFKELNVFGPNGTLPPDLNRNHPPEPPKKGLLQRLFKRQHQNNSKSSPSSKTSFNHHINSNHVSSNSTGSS
Procedure, shortened: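 Casein (10 μM) phosphorylation with 100 μM ATP in 20 mM MES pH 6.0, 1 mM DTT, 10 mM MgCl2, 0.01% Tween20, 120 min at room temperature; ADP quantified by ADP-Glo luminescence.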

[2] = target: T2, GRK5 (Homo sapiens, UniProt P34947); assay: Millipore KinaseProfiler radiometric filtration binding assay; assay type: biochemical; conditions: group II; Millipore KinaseProfiler (Table 10)
T2 construct: purchased Millipore (KinaseProfiler service)
T2 sequence (P34947 whole entry): as above
Method: (§1) As alternative, IC50 values are determined by a radiometric based filtration binding assay, namely Millipore KinaseProfiler™. GRK5 is incubated with 8 mM MOPS pH7.0, 0.2 mM EDTA, 2 mg/mL casein, 10 mM MgAcetate and […] (specific activity approx. 500 cpm/pmol, concentration as required). The reaction is initiated by the addition of the MgATP mix. After incubation for 40 minutes at room temperature, the reaction is stopped by the addition of 3% phosphoric acid solution. 10 μL of the reaction is then spotted onto a P30 filtermat and washed three times for 5 minutes in 75 mM phosphoric acid and once in methanol prior to drying and scintillation counting.
as §1, with “IC50” for “As alternative, IC50”, “pH 7.0,” for “pH7.0,”

[3] = system: 3T3-L1 cells; assay: Cell viability assay (CellTiter-Glo / automated cell number) in 3T3-L1; assay type: cell-based; conditions: Mus musculus, read-out: Inhibition of cell viability IC50
Source text: (§2) Luminescent cell viability assay. For the detection of cell viability, the CellTiter-Glo® Luminescent Cell Viability Assay was used. This test is based on a luciferase reaction to measure the amount of ATP in cells. This correlates directly with the number of cells and their viability because cells lose the ability to synthesize ATP directly after e.g. loss of membrane integrity or a cytotoxic event. The protocol was adapted to 24 well plates and to the different culture conditions resulting in a standardized protocol which is described below. Cell lysis, inhibition of endogenous ATPases and detection of ATP was performed by adding the CellTiter-Glo® Reagent to the culture wells. Per well, 100 μl reagent were mixed with the same volume of proper Medium. Lysing of the cells took place by 10 min incubation at RT and moderate shaking. Three times 50 μl cell lysate was transferred into a white 96 well plate to eliminate stray light, and the bioluminescence was measured.
(§3) In a 96 well dish 10000 cells per well (100 μl) were seed and treated for 72 h. At the end of the treatment, cells were fixed with 4% paraformaldehyde in PBS for 15 minutes, permeabilized with 0.1% triton-X 100 in PBS for 15 minutes and stained with Hoechst 33342 (20 μg/ml in PBS; dilute from 20 mg/ml stock) directly to cells in 100 μl medium in PBS for 30 minutes at 37° C. Stained cells were imaged with a Cellomics ArrayScan VT I automated microscope. Images were analyzed with vHCS Scan Target Activation software v5.1.2 to identify apoptotic cells. Six fields per well of a 96 well plate we re-imaged at 10× magnification. First, cells were identified by their nuclei staining in channel 1 of Cellomics and their amount. Staining intensity was plotted and compared between NT controls and compound treated cells. Finally, data was obtained using vHCS View software v 5.1.2 and the numbers of cells present in the 96 well were identified as “Valid Object Count” whereas the percentage of infection was determined as “% selected”. IC50 values have been calculated accordingly.

[4] = system: beta TC6 cells; assay: Cell viability assay (CellTiter-Glo / automated cell number) in beta TC6; assay type: cell-based; conditions: Mus musculus, read-out: Inhibition of cell viability IC50
Source text: as §2, §3

[5] = system: C2C12 cells; assay: Cell viability assay (CellTiter-Glo / automated cell number) in C2C12; assay type: cell-based; conditions: Mus musculus, read-out: Inhibition of cell viability IC50
Source text: as §2, §3

[6] = system: HepG2 cells; assay: Cell viability assay (CellTiter-Glo / automated cell number) in HepG2; assay type: cell-based; conditions: Homo sapiens, read-out: Inhibition of cell viability IC50
Source text: as §2, §3

[7] = system: beta-TC6 insulinoma cells; assay: Insulin release by beta-TC6 cells, rat/mouse insulin ELISA, high glucose; assay type: cell-based; conditions: Mus musculus, Beta-TC6, 2 h, group II; 5 μM, 2 h, high glucose (4.5 g/L); % increase in regard to DMSO control (set at 0%)
Method: (§4) Release of insulin was detected using a rat/mouse insulin ELISA.
After incubation, the supernatant of the beta-TC6 insulinoma cells was diluted 1:20. The insulin release was measured with rat/mouse insulin ELISA (Merck Millipore Darmstadt, Cat. # EZRMI-13K) by following the manufacture protocol. The enzyme activity of the horseradish peroxidase of the immobilized biotinylated antibodies was monitored spectrophotometrically by the increased absorbency at 490 nm, and corrected by the absorbency at 610 nm.
as §4
The effect on the insulin release of each kinase depletion was monitored by using a rat/mouse insulin ELISA.
For the validation of the negative modulating kinases SCYL1, GRK5, and ADCK1, the target genes were depleted using four different siRNA-sequences each (FIG. 2A-D). The gene-depletion was measured via mRNA-levels after 72 hours while the insulin release was measured using a rat/mouse insulin ELISA after two hours incubation.

| IC50 [1] | IC50 [2] | IC50 [6] | Compound | IC50 [3] | IC50 [4] | IC50 [5] | activation at 5 µM [7] |
| --- | --- | --- | --- | --- | --- | --- | --- |
| 2 to 10 µM | 2 to 10 µM | 2.53 µM | C[C@@H](c1ccccc1)N(C)C(=O)c1ccc2c(c1)/C(=C/Nc1ccc(CN3CCCCC3)cc1)C(=O)N2 [II.71, (3Z)-N-methyl-2-oxo-N-[(1S)-1-phenylethyl]-3-({[4-(piperidin-1-ylmethyl)phenyl]amino}methylene)indoline-5-carboxamide] | 3.1 µM | 2.75 µM | 4.26 µM |  |
| 0.1 to 1 µM | 0.1 to 1 µM | 1.3 µM | CC[C@@H](NC(=O)c1ccc2c(c1)/C(=C/c1[nH]c(C)c(C(=O)N3CCC(N4CCN(C)CC4)CC3)c1C)C(=O)N2)c1ccccc1 [II.53, (3Z)-3-[(3,5-dimethyl-4-{[4-(4-methylpiperazin-1-yl)piperidin-1-yl]carbonyl}-1H-pyrrol-2-yl)methylene]-2-oxo-N-[(1R)-1-phenylpropyl]indoline-5-carboxamide] | 1.14 µM | 1.55 µM | > 10 µM |  |
| 0.1 to 1 µM | 0.1 to 1 µM | 0.79 µM | Cc1[nH]c(/C=C2\C(=O)Nc3ccc(C(=O)N[C@H](C)c4cccc(Cl)c4)cc32)c(C)c1C(=O)N1CCCCC1 [II.55, (3Z)-N-[(1R)-1-(3-chlorophenyl)ethyl]-3-{[3,5-dimethyl-4-(piperidin-1-ylcarbonyl)-1H-pyrrol-2-yl]methylene}-2-oxoindoline-5-carboxamide] | 0.86 µM | 1.1 µM | 1.41 µM |  |
|  | 0.1 to 1 µM |  | Cc1[nH]c(/C=C2\C(=O)Nc3ccc(C(=O)N[C@H](C)c4ccccc4)cc32)c(C)c1C(=O)N1CCC[C@H]1CN1CCCC1 [II.16, (3Z)-3-[(3,5-dimethyl-4-{[(2S)-2-(pyrrolidin-1-ylmethyl)pyrrolidin-1-yl]carbonyl}-1H-pyrrol-2-yl)methylene]-2-oxo-N-[(1R)-1-phenylethyl]indoline-5-carboxamide] |  |  |  |  |
| 0.1 to 1 µM | 0.1 to 1 µM | 1.43 µM | CC[C@@H](NC(=O)c1ccc2c(c1)/C(=C/c1[nH]c(C)c(C(=O)N3CCC[C@@H]3CN3CCCC3)c1C)C(=O)N2)c1ccccc1 [II.48, (3Z)-3-[(3,5-dimethyl-4-{[(2R)-2-(pyrrolidin-1-ylmethyl)pyrrolidin-1-yl]carbonyl}-1H-pyrrol-2-yl)methylene]-2-oxo-N-[(1R)-1-phenylpropyl]indoline-5-carboxamide] | 0.6 µM | 1.08 µM | > 10 µM |  |
| < 0.1 µM | < 0.1 µM | 0.78 µM | CC[C@@H](NC(=O)c1ccc2c(c1)/C(=C/c1[nH]c(C)c(C(=O)N3CCC[C@H]3CN3CCCC3)c1C)C(=O)N2)c1ccccc1 [II.46, (3Z)-3-[(3,5-dimethyl-4-{[(2S)-2-(pyrrolidin-1-ylmethyl)pyrrolidin-1-yl]carbonyl}-1H-pyrrol-2-yl)methylene]-2-oxo-N-[(1R)-1-phenylpropyl]indoline-5-carboxamide] | 0.32 µM | 0.22 µM | 8.86 µM |  |
| 0.1 to 1 µM |  | 0.63 µM | CCC(NC(=O)c1ccc2c(c1)/C(=C/c1[nH]c(C)c(C(=O)NCCN3CCCC3)c1C)C(=O)N2)c1ccc(F)c(F)c1 (stereo not shown) [II.10, (3Z)-N-[1-(3,4-difluorophenyl)propyl]-3-({3,5-dimethyl-4-[(2-pyrrolidin-1-ylethyl)carbamoyl]-1H-pyrrol-2-yl}methylene)-2-oxoindoline-5-carboxamide] | > 10 µM | 0.67 µM | 3.23 µM | 164% |
| 2 to 10 µM | 2 to 10 µM | 2.84 µM | Cc1[nH]c(/C=C2\C(=O)Nc3ccc(C(=O)N[C@@H]4CCc5ccccc54)cc32)c(C)c1C(=O)N1CCC[C@@H]1CN1CCCC1 [II.30, (3Z)-N-[(1R)-2,3-dihydro-1H-inden-1-yl]-3-[(3,5-dimethyl-4-{[(2R)-2-(pyrrolidin-1-ylmethyl)pyrrolidin-1-yl]carbonyl}-1H-pyrrol-2-yl)methylene]-2-oxoindoline-5-carboxamide] | 0.81 µM | 1.69 µM | > 10 µM |  |
| 0.1 to 1 µM | 0.1 to 1 µM | 1.25 µM | CC[C@@H](NC(=O)c1ccc2c(c1)/C(=C/c1[nH]c(C)c(C(=O)N3CCCCC3)c1C)C(=O)N2)c1ccccc1 [II.63, (3Z)-3-{[3,5-dimethyl-4-(piperidin-1-ylcarbonyl)-1H-pyrrol-2-yl]methylene)-2-oxo-N-[(1R)-1-phenylpropyl]indoline-5-carboxamide] | 0.94 µM | 1.26 µM | 1.72 µM |  |
| 0.1 to 1 µM | 0.1 to 1 µM | 2.07 µM | Cc1ccc([C@@H](C)NC(=O)c2ccc3c(c2)/C(=C/Nc2ccc(CN4CCCCC4)cc2)C(=O)N3)cc1 [II.72, (3Z)-N-[(1R)-1-(4-methylphenyl)ethyl]-2-oxo-3-({[4-(piperidin-1-ylmethyl)phenyl]amino}methylene)indoline-5-carboxamide] | 1.54 µM | 1.27 µM | > 10 µM |  |
| 2 to 10 µM | 2 to 10 µM | 3.25 µM | CC[C@H](NC(=O)c1ccc2c(c1)/C(=C/c1[nH]c(C)c(C(=O)N3CCC[C@H]3CN3CCCC3)c1C)C(=O)N2)c1ccccc1 [II.47, (3Z)-3-[(3,5-dimethyl-4-{[(2S)-2-(pyrrolidin-1-ylmethyl)pyrrolidin-1-yl]carbonyl}-1H-pyrrol-2-yl)methylene]-2-oxo-N-[(1S)-1-phenylpropyl]indoline-5-carboxamide] | 1.34 µM | 2.21 µM | > 10 µM |  |
| 0.1 to 1 µM | 0.1 to 1 µM |  | CCC(NC(=O)c1ccc2c(c1)/C(=C/c1[nH]c(C)c(C(=O)N3CCN(C)CC3)c1C)C(=O)N2)c1ccc(Cl)cc1 (stereo not shown) [II.12, (3Z)-N-[1-(4-chlorophenyl)propyl]-3-({3,5-dimethyl-4-[(4-methylpiperazin-1-yl)carbonyl]-1H-pyrrol-2-yl}methylene)-2-oxoindoline-5-carboxamide] |  |  |  | 214% |
| 0.1 to 1 µM | 0.1 to 1 µM | 1.81 µM | COc1ccc([C@@H](C)NC(=O)c2ccc3c(c2)/C(=C/Nc2ccc(CN4CCCCC4)cc2)C(=O)N3)cc1 [II.70, (3Z)-N-[(1R)-1-(4-methoxyphenyl)ethyl]-2-oxo-3-({[4-(piperidin-1-ylmethyl)phenyl]amino}methylene)indoline-5-carboxamide] | 2.16 µM | 1.48 µM | > 10 µM |  |
